ChEMBL document CHEMBL1141575, “Preparation and in vitro biological evaluation of tetrapyrrole ethanolamide derivatives as potential anticancer agents” (Bioorg Med Chem Lett, 2008)

Columns and labels:
HeLa [1] = assay: Survival of human HeLa cells at 0.1 uM under deem light after 96 hrs by MTT assay relative to control; format: functional; details: read-out: Survival
HeLa [2] = assay: Survival of human HeLa cells at 10 uM under deem light after 96 hrs by MTT assay relative to control; format: functional; details: read-out: Survival
HeLa [3] = assay: Survival of human HeLa cells at 50 uM under deem light after 96 hrs by MTT assay relative to control; format: functional; details: read-out: Survival
HeLa [4] = assay: Survival of human HeLa cells at 100 uM under deem light after 96 hrs by MTT assay relative to control; format: functional; details: read-out: Survival
NCI-H69 [5] = assay: Survival of human H69 cells at 0.1 uM under deem light after 96 hrs by MTT assay relative to control; format: functional; details: NCI-H69, 96 h, read-out: Survival
NCI-H69 [6] = assay: Survival of human H69 cells at 10 uM under deem light after 96 hrs by MTT assay relative to control; format: functional; details: NCI-H69, 96 h, read-out: Survival
NCI-H69 [7] = assay: Survival of human H69 cells at 50 uM under deem light after 96 hrs by MTT assay relative to control; format: functional; details: NCI-H69, 96 h, read-out: Survival
NCI-H69 [8] = assay: Survival of human H69 cells at 100 uM under deem light after 96 hrs by MTT assay relative to control; format: functional; details: NCI-H69, 96 h, read-out: Survival
[9] = Survival of human H209 cells at 0.1 uM under deem light after 96 hrs by MTT assay relative to control; format: functional; details: NCI-H209, 96 h, read-out: Survival
[10] = Survival of human H209 cells at 10 uM under deem light after 96 hrs by MTT assay relative to control; format: functional; details: NCI-H209, 96 h, read-out: Survival
[11] = Survival of human H209 cells at 50 uM under deem light after 96 hrs by MTT assay relative to control; format: functional; details: NCI-H209, 96 h, read-out: Survival
[12] = Survival of human H209 cells at 100 uM under deem light after 96 hrs by MTT assay relative to control; format: functional; details: NCI-H209, 96 h, read-out: Survival
[13] = Survival of human 2780.9S cells at 0.1 uM under deem light after 96 hrs by MTT assay relative to control; format: functional; details: read-out: Survival
[14] = Survival of human 2780.9S cells at 10 uM under deem light after 96 hrs by MTT assay relative to control; format: functional; details: read-out: Survival
[15] = Survival of human 2780.9S cells at 50 uM under deem light after 96 hrs by MTT assay relative to control; format: functional; details: read-out: Survival
[16] = Survival of human 2780.9S cells at 100 uM under deem light after 96 hrs by MTT assay relative to control; format: functional; details: read-out: Survival
[17] = Survival of human MDA-MB cells at 0.1 uM under deem light after 96 hrs by MTT assay relative to control; format: functional; details: read-out: Survival
[18] = Survival of human MDA-MB cells at 10 uM under deem light after 96 hrs by MTT assay relative to control; format: functional; details: read-out: Survival
[19] = Survival of human MDA-MB cells at 50 uM under deem light after 96 hrs by MTT assay relative to control; format: functional; details: read-out: Survival
[20] = Survival of human MDA-MB cells at 100 uM under deem light after 96 hrs by MTT assay relative to control; format: functional; details: read-out: Survival
SiHa [21] = assay: Cytotoxicity against human SIHA cells under deem light after 96 hrs by MTT assay; format: functional, cell-based
Raji [22] = assay: Cytotoxicity against human Raji cells under deem light after 96 hrs by MTT assay; format: functional, cell-based
[23] = Cytotoxicity against human MDA-MB cells under deem light after 96 hrs by MTT assay; format: functional, cell-based
K562 [24] = assay: Cytotoxicity against human K562 cells under deem light after 96 hrs by MTT assay; format: functional, cell-based; details: K562, 96 h
HeLa [25] = assay: Cytotoxicity against human HeLa cells under deem light after 96 hrs by MTT assay; format: functional, cell-based
NCI-H69 [26] = assay: Cytotoxicity against human H69 cells under deem light after 96 hrs by MTT assay; format: functional, cell-based; details: NCI-H69, 96 h
Daudi = assay: Cytotoxicity against human Daudi cells under deem light after 96 hrs by MTT assay; format: functional, cell-based
[27] = Cytotoxicity against human 2780.9S cells under deem light after 96 hrs by MTT assay; format: functional, cell-based
[28] = Photohemolysis in human RBC in absence of light; format: ADME, cell-based; details: erythrocyte
[29] = Photohemolysis in human RBC at 375 nM under exposure to light for 10 mins; format: ADME, cell-based, Erythrocyte; details: human red blood cells, read-out: Activity
[30] = Photohemolysis in human RBC assessed as concentration required to 50% hemolysis under light exposure for 5 mins; format: ADME, cell-based, Erythrocyte; details: human red blood cells, read-out: Activity
[31] = Photohemolysis in human RBC assessed as concentration required to 50% hemolysis under light exposure for 10 mins; format: ADME, cell-based, Erythrocyte; details: human red blood cells, read-out: Activity
SiHa [32] = assay: Survival of human SIHA cells at 1 uM under deem light after 96 hrs by MTT assay relative to control; format: functional; details: read-out: Survival
K562 [33] = assay: Survival of human K562 cells at 1 uM under deem light after 96 hrs by MTT assay relative to control; format: functional; details: K562, 96 h, read-out: Survival
Raji [34] = assay: Survival of human Raji cells at 1 uM under deem light after 96 hrs by MTT assay relative to control; format: functional; details: read-out: Survival
HeLa [35] = assay: Survival of human HeLa cells at 1 uM under deem light after 96 hrs by MTT assay relative to control; format: functional; details: read-out: Survival
NCI-H69 [36] = assay: Survival of human H69 cells at 1 uM under deem light after 96 hrs by MTT assay relative to control; format: functional; details: NCI-H69, 96 h, read-out: Survival
[37] = Survival of human H209 cells at 1 uM under deem light after 96 hrs by MTT assay relative to control; format: functional; details: NCI-H209, 96 h, read-out: Survival
[38] = Survival of human 2780.9S cells at 1 uM under deem light after 96 hrs by MTT assay relative to control; format: functional; details: read-out: Survival
[39] = Survival of human MDA-MB cells at 1 uM under deem light after 96 hrs by MTT assay relative to control; format: functional; details: read-out: Survival
SiHa [40] = assay: Survival of human SIHA cells at 10 uM under deem light after 96 hrs by MTT assay relative to control; format: functional; details: read-out: Survival
SiHa [41] = assay: Survival of human SIHA cells at 50 uM under deem light after 96 hrs by MTT assay relative to control; format: functional; details: read-out: Survival
SiHa [42] = assay: Survival of human SIHA cells at 100 uM under deem light after 96 hrs by MTT assay relative to control; format: functional; details: read-out: Survival
K562 [43] = assay: Survival of human K562 cells at 0.1 uM under deem light after 96 hrs by MTT assay relative to control; format: functional; details: K562, 96 h, read-out: Survival
K562 [44] = assay: Survival of human K562 cells at 10 uM under deem light after 96 hrs by MTT assay relative to control; format: functional; details: K562, 96 h, read-out: Survival
K562 [45] = assay: Survival of human K562 cells at 50 uM under deem light after 96 hrs by MTT assay relative to control; format: functional; details: K562, 96 h, read-out: Survival
K562 [46] = assay: Survival of human K562 cells at 100 uM under deem light after 96 hrs by MTT assay relative to control; format: functional; details: K562, 96 h, read-out: Survival
Raji [47] = assay: Survival of human Raji cells at 0.1 uM under deem light after 96 hrs by MTT assay relative to control; format: functional; details: read-out: Survival
Raji [48] = assay: Survival of human Raji cells at 10 uM under deem light after 96 hrs by MTT assay relative to control; format: functional; details: read-out: Survival
Raji [49] = assay: Survival of human Raji cells at 50 uM under deem light after 96 hrs by MTT assay relative to control; format: functional; details: read-out: Survival
Raji [50] = assay: Survival of human Raji cells at 100 uM under deem light after 96 hrs by MTT assay relative to control; format: functional; details: read-out: Survival

Compound: CC1=C(CCC(=O)O)c2cc3nc(cc4[nH]c(cc5[nH]c(cc1n2)c(C)c5C(C)O)c(C)c4C(C)O)C(C)=C3CCC(=O)O (stereo unspecified) [HAEMAPORPHYRIN]
- viability at 0.1 µM (HeLa [1]): 85.8%
- viability at 10 µM (HeLa [2]): 113%
- viability at 50 µM (HeLa [3]): 109%
- viability at 100 µM (HeLa [4]): 104%
- viability at 0.1 µM (NCI-H69 [5]): 92.2%
- viability at 10 µM (NCI-H69 [6]): 104%
- viability at 50 µM (NCI-H69 [7]): 82.9%
- viability at 100 µM (NCI-H69 [8]): 62.6%
- viability at 0.1 µM [9]: 91.4%
- viability at 10 µM [10]: 99.5%
- viability at 50 µM [11]: 93.3%
- viability at 100 µM [12]: 84.6%
- viability at 0.1 µM [13]: 102%
- viability at 10 µM [14]: 75.5%
- viability at 50 µM [15]: 81.4%
- viability at 100 µM [16]: 43.8%
- viability at 0.1 µM [17]: 136%
- viability at 10 µM [18]: 104%
- viability at 50 µM [19]: 107%
- viability at 100 µM [20]: 82.8%
- IC50 (SiHa [21]): 56 µM
- IC50 (Raji [22]): 57 µM
- IC50 [23]: > 100 µM
- IC50 (K562 [24]): 44 µM
- IC50 (HeLa [25]): 71 µM
- IC50 (NCI-H69 [26]): 70 µM
- IC50 (Daudi): 15 µM
- IC50 [27]: > 100 µM
- Activity [28]: Non-toxic
- hemolysis at 10 min, 0.375 µM [29]: 100%
- HC50 at 5 min [30]: 170 nM
- HC50 at 10 min [31]: 460 nM
- viability at 1 µM (SiHa [32]): 92.2%
- viability at 1 µM (K562 [33]): 82.7%
- viability at 1 µM (Raji [34]): 89.6%
- viability at 1 µM (HeLa [35]): 103%
- viability at 1 µM (NCI-H69 [36]): 105%
- viability at 1 µM [37]: 94%
- viability at 1 µM [38]: 82.5%
- viability at 1 µM [39]: 115%
- viability at 10 µM (SiHa [40]): 81.6%
- viability at 50 µM (SiHa [41]): 52.6%
- viability at 100 µM (SiHa [42]): 44.5%
- viability at 0.1 µM (K562 [43]): 68.7%
- viability at 10 µM (K562 [44]): 82.5%
- viability at 50 µM (K562 [45]): 55.9%
- viability at 100 µM (K562 [46]): 32.1%
- viability at 0.1 µM (Raji [47]): 92.1%
- viability at 10 µM (Raji [48]): 71.4%
- viability at 50 µM (Raji [49]): 27.6%
- viability at 100 µM (Raji [50]): 17%
